pIC50: −log10 of the molar value.
Experiments:
IRAK4 = target: T1, IRAK4 (Homo sapiens, UniProt Q9NWZ3); assay: IRAK-4 activity inhibition assay (Caliper); format: biochemical; conditions: 3.5 nM IRAK4, 1.5 μM Peptide 8, 37 μM ATP
T1 construct: purchased CARNA Bioscience 09-145
T1 sequence (Q9NWZ3 1-460): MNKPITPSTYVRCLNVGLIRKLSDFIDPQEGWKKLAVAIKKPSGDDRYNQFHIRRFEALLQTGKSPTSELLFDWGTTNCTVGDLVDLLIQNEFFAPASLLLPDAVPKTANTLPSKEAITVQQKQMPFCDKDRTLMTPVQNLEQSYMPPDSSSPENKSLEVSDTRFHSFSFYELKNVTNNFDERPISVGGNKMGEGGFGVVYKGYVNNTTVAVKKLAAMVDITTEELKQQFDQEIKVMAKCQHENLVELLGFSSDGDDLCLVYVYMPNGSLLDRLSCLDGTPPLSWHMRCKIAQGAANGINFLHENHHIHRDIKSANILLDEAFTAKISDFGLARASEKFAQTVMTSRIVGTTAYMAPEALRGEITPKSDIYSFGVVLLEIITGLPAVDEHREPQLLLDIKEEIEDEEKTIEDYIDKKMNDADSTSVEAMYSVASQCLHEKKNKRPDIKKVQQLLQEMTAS
Summary of the method: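 Mobility-shift (Caliper) assay with 3.5 nM IRAK4 in 50 mM HEPES pH 7.5, 0.0015% Brij-35, 5 mM MgCl2, 1 mM MnCl2, 2 mM DTT. Enzyme preincubated with compound 10 min at room temperature, then 1.5 μM peptide 8 and 37 μM ATP for 40 min. Inhibition from conversion % relative to DMSO and no-enzyme controls; 10-point IC50.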

[1] = tested on: TNFα production in THP-1 cells; assay: LPS induced TNFα production assay in THP-1 cells; format: cell-based; conditions: Homo sapiens, 300 ng/mL LPS, measured at 5 hours
Protocol: (§1) Provided compounds were also assayed in an LPS (Lipopolysaccharide) or R848 (TLR-7 agonist) induced cytokine (TNFα and IL8) production assay in THP-1 cells, human white blood cells (hWBC), and human whole blood. The exemplary protocol for this assay in THP-1 cells was as follows below.
(§2) THP-1 cells from ATCC (TIB-202) were cultured in RPMI Medium 1640 (Invitrogen, Cat No. A10491-01), 10% fetal bovine serum (Invitrogen, Cat No. 10099141, Lot No. 8172882) containing 100 U/mL Penicillin, 100 μg/mL streptomycin (Invitrogen, Cat No. 15140-122), and 50 uM 2-Mercaptoethanol (Invitrogen, Cat No. 21985023). LPS-EK ultra pure (Invivogen, Cat No. tlrl-peklps) was used to induce IL8 and TNFα production, that was detected in the cell culture supernatant by IL8 HTRF kit (Cisbio, Cat No. 62IL8PEB) and TNFα HTRF kit (Cisbio, Cat No. 62TNFPEB), as per manufacturer instructions. Cells were cultured in 96 well assay plates at 100,000 cells per well, and compounds diluted in final 0.3% DMSO were pre-incubated with cells for 1 hour prior to stimulation with 300 ng/mL LPS. Cytokine production in cell supernatant was measured at 5 hours for TNFα production, and at 16 hours for IL8 production and assessment of cell viability.
(§3) The compound numbers correspond to the compound numbers in Table 1. Compounds having an activity designated as “A” provided an IC50≦0.5 μM; compounds having an activity designated as “B” provided an IC50 of 0.5-5.0 μM; compounds having an activity designated as “C” provided an IC50>5.0 μM. “NA” stands for “not assayed.”

[2] = tested on: IL8 production in THP-1 cells; assay: LPS induced IL8 production assay in THP-1 cells; format: cell-based; conditions: Homo sapiens, 300 ng/mL LPS, measured at 16 hours
Protocol: as §1, §2, §3

| Structure (SMILES) | pIC50 (IRAK4) | pIC50 [1] | pIC50 [2] |
| --- | --- | --- | --- |
| N#CCc1ccc2ncnc(N[C@H]3CC[C@H](N4CCC5(CC4)COC5)CC3)c2c1 [Compound I-58, 2-(4-(((1r,4r)-4-(2-oxa-7-azaspiro[3.5]nonan-7-yl)cyclohexyl)-amino)quinazolin-6-yl)acetonitrile] | ≥ 5.30 | ≥ 6.30 | ≥ 6.30 |
| c1nc(N[C@H]2CC[C@H](N3CCOCC3)CC2)c2cc(-c3cn[nH]c3)ccc2n1 [Compound I-59, N-((1r,4r)-4-morpholinocyclohexyl)-6-(1H-pyrazol-4-yl)quinazolin-4-amine] | ≥ 5.30 | ≥ 6.30 | ≥ 6.30 |

Source: US20150329498A1, “IRAK INHIBITORS AND USES THEREOF” (Nimbus Iris, Inc., priority 2014, published 2015)
